Reference: PubChem BioAssay AID651914 (NMMLSC, 2012)

Test system: AM2.2-GPR32 FAP cells, fluorogen binding, flow cytometry MCF
Test: interference with FAP fluorogen signal – AM2.2 cells, flow cytometry, powder set 5, counter-screen for beta2AR agonist internalization project, dose response (AID 651914)

First: CCC(=O)Nc1ccc(S(=O)(=O)N2CCCCC2CC)cc1 (stereo not drawn)
Second: Cc1cccc(C(=O)Nc2ccc(S(=O)(=O)N3CCCCC3C)cc2)c1 (stereo not drawn)
The EC50 of the first is 390-fold lower: 7.5 nM for the first, 2900 nM for the second. The first is the more potent here.

`CN(CC(=O)N1CCN(c2ccc(F)cc2)CC1)S(=O)(=O)c1ccc(Br)cc1` showed an EC50 of 410 nM.
